The text below walks through data of ChEMBL document CHEMBL1159048, “Asymmetric syntheses of daedalin A and quercinol and their tyrosinase inhibitory activity” (Bioorg Med Chem Lett, 2010).

pIC50: −log10 of the molar value.

Test [1] has as its target T1, Tyrosinase (Agaricus bisporus) (UniProt O42713).
T1 sequence (whole entry): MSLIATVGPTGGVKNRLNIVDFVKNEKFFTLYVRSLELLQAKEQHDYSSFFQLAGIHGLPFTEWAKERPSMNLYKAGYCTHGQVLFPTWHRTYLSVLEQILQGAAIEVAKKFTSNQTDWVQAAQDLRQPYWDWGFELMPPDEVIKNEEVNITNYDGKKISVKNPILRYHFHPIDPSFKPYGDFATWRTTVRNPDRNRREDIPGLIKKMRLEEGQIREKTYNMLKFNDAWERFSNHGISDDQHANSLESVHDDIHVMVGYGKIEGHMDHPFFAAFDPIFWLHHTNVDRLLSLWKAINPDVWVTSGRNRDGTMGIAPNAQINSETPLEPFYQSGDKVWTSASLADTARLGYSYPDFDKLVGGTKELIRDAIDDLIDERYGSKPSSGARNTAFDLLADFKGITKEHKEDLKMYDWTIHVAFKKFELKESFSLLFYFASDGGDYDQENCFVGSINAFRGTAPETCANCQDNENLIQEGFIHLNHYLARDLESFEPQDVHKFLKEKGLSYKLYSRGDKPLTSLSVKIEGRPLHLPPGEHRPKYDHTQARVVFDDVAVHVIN
The test can be described thus: Inhibition of mushroom tyrosinase at 100 uM.

Test [2] concerns the target T1, Tyrosinase (Agaricus bisporus). The test can be described thus: Inhibition of mushroom tyrosinase at 400 uM.
The target in a further test is T2, Tyrosinase (Agaricus bisporus, UniProt O42713).
T2 sequence (O42713 whole entry): T1 sequence (whole entry)
The test can be described thus: Inhibition of mushroom tyrosinase.

For test [3], the target named is T1, Tyrosinase (Agaricus bisporus). The test can be described thus: Inhibition of mushroom tyrosinase at 200 uM.

Usually inhibition stands for the percentage by which the read-out fell short of the control. Lower therefore signals a weak effect. For orientation: pIC50 means the IC50 on a negative log10 scale, so that one unit is a factor of ten. A low value points to a large IC50.

In the case of `C[C@]1(CO)C=Cc2cc(O)ccc2O1` [DAEDALIN A], the inhibition in test [1] amounted to 28.6%; in test [2], 61.6%; in test [3], 48.4%. Also, the negative logarithm of the IC50 (pIC50) against Tyrosinase was 3.68.
